Measurements from PubChem BioAssay (NCI).
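In this assay, cells in 96-well plates receive the compound at five concentrations for 48 hours. Endpoints are linearly interpolated between the surrounding concentrations. At the GI50, growth is halved. TGI marks complete inhibition of growth.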

What was measured:
Test in all cases: DTP human tumour cell line panel, 48 h
NCI-H226 lung = test system: NCI-H226 lung
NCI-H460 lung = test system: NCI-H460 lung
NCI-H522 lung = test system: NCI-H522 lung
NCI/ADR-RES ovarian = test system: NCI/ADR-RES ovarian
OVCAR-3 ovarian = test system: OVCAR-3 ovarian
OVCAR-4 ovarian = test system: OVCAR-4 ovarian
OVCAR-5 ovarian = test system: OVCAR-5 ovarian
OVCAR-8 ovarian = test system: OVCAR-8 ovarian
PC-3 prostate = test system: PC-3 prostate
RPMI-8226 leukemia = test system: RPMI-8226 leukemia
RXF 393 renal = test system: RXF 393 renal
SF-268 CNS = test system: SF-268 CNS
SF-295 CNS = test system: SF-295 CNS
SF-539 CNS = test system: SF-539 CNS
SK-MEL-2 melanoma = test system: SK-MEL-2 melanoma
SK-MEL-28 melanoma = test system: SK-MEL-28 melanoma
SK-MEL-5 melanoma = test system: SK-MEL-5 melanoma
SK-OV-3 ovarian = test system: SK-OV-3 ovarian
SN12C renal = test system: SN12C renal
SNB-19 CNS = test system: SNB-19 CNS
SNB-75 CNS = test system: SNB-75 CNS
SR leukemia = test system: SR leukemia
SW-620 colon = test system: SW-620 colon
T-47D breast = test system: T-47D breast
TK-10 renal = test system: TK-10 renal
U251 CNS = test system: U251 CNS
UACC-257 melanoma = test system: UACC-257 melanoma
UACC-62 melanoma = test system: UACC-62 melanoma
UO-31 renal = test system: UO-31 renal

`C/C(=C(/c1ccc(O)cc1)c1ccc(OCCN2CCCCCC2)cc1)c1ccccc1` was tested, and the TGI (NCI-H226 lung) was greater than 100 µM, the GI50 (NCI-H460 lung) was 38.2 µM and the TGI (NCI-H460 lung) was greater than 100 µM. For the same compound, the GI50 (NCI-H522 lung) was greater than 100 µM, the TGI (NCI-H522 lung) was greater than 100 µM and the GI50 (NCI/ADR-RES ovarian) was greater than 100 µM. For the same compound, the TGI (NCI/ADR-RES ovarian) was greater than 100 µM, the GI50 (OVCAR-3 ovarian) was greater than 100 µM and the TGI (OVCAR-3 ovarian) was greater than 100 µM. For the same compound, the GI50 (OVCAR-4 ovarian) was greater than 100 µM, the TGI (OVCAR-4 ovarian) was greater than 100 µM and the GI50 (OVCAR-5 ovarian) was greater than 100 µM. The TGI (OVCAR-5 ovarian) was greater than 100 µM, the GI50 (OVCAR-8 ovarian) was greater than 100 µM and the TGI (OVCAR-8 ovarian) was greater than 100 µM. It also gave a GI50 (PC-3 prostate) of 57.9 µM, a TGI (PC-3 prostate) greater than 100 µM and a GI50 (RPMI-8226 leukemia) of 30.5 µM. For the same compound, the TGI (RPMI-8226 leukemia) was greater than 100 µM, the GI50 (RXF 393 renal) was 31.2 µM and the TGI (RXF 393 renal) was greater than 100 µM. It also gave a GI50 (SF-268 CNS) greater than 100 µM, a TGI (SF-268 CNS) greater than 100 µM and a GI50 (SF-295 CNS) of 93.3 µM. It also gave a TGI (SF-295 CNS) greater than 100 µM, a GI50 (SF-539 CNS) of 61.3 µM and a TGI (SF-539 CNS) greater than 100 µM. For the same compound, the GI50 (SK-MEL-2 melanoma) was greater than 100 µM, the TGI (SK-MEL-2 melanoma) was greater than 100 µM and the GI50 (SK-MEL-28 melanoma) was 42.9 µM. For the same compound, the TGI (SK-MEL-28 melanoma) was greater than 100 µM, the GI50 (SK-MEL-5 melanoma) was 66.1 µM and the TGI (SK-MEL-5 melanoma) was greater than 100 µM. For the same compound, the GI50 (SK-OV-3 ovarian) was greater than 100 µM, the TGI (SK-OV-3 ovarian) was greater than 100 µM and the GI50 (SN12C renal) was greater than 100 µM. For the same compound, the TGI (SN12C renal) was greater than 100 µM, the GI50 (SNB-19 CNS) was greater than 100 µM and the TGI (SNB-19 CNS) was greater than 100 µM. The GI50 (SNB-75 CNS) was greater than 100 µM, the TGI (SNB-75 CNS) was greater than 100 µM and the GI50 (SR leukemia) was 22 µM. The TGI (SR leukemia) was 69.6 µM, the GI50 (SW-620 colon) was 25.5 µM and the TGI (SW-620 colon) was 75.5 µM. The GI50 (T-47D breast) was 11.5 µM, the TGI (T-47D breast) was greater than 100 µM and the GI50 (TK-10 renal) was greater than 100 µM. The TGI (TK-10 renal) was greater than 100 µM, the GI50 (U251 CNS) was 69.9 µM and the TGI (U251 CNS) was greater than 100 µM. The GI50 (UACC-257 melanoma) was 48.2 µM, the TGI (UACC-257 melanoma) was greater than 100 µM and the GI50 (UACC-62 melanoma) was greater than 100 µM. It also gave a TGI (UACC-62 melanoma) greater than 100 µM, a GI50 (UO-31 renal) of 57.5 µM and a TGI (UO-31 renal) greater than 100 µM.
